Measurements published in US12264170B2, “Antimicrobial organosilanes” (TOPIKOS SCIENTIFIC, INC., priority 2019, dated 2025).
In brackets after ≈: the same amount, converted by molar mass.

What was measured:
[1] = system: Staphylococcus aureus ATCC 33591; assay: MIC microdilution assay; assay type: cell-based; conditions: S. aureus ATCC 33591; CAMHB; 35±2° C. 18 to 20 hours; two values given
Protocol: (§1) Strain numbers starting with “ATCC” were acquired from the American Type Culture Collection (Manassas, VA), while strain numbers starting with “CDC” were acquired from the Centers for Disease Control and Prevention (Atlanta, GA). All strains were maintained as −80° C. frozen glycerol stocks. S. aureus and P. aeruginosa were grown overnight on Tryptic Soy Agar (TSA) plates at 35±2° C., ambient atmosphere, while S. pyogenes was grown overnight on TSA+5% defibrinated sheep blood at 35±2° C., 5% CO2. All fungal species (i.e. C. albicans, C. auris and C. herbarum) were grown on Sabouraud Dextrose Agar (SDA) plates. C. herbarum was grown at 25±2° C. for 5 to 7 days, while all other fungal strains were grown at 35±2° C. overnight.
(§2) Test articles Compound 2 (batch #2G13A0.368) and Compound 23 (batch #2G17A0.372) were received and stored at 4° C. The antibiotic Tobramycin and antifungal Amphotericin B were used as quality control (QC) compounds for the MIC assay. Stock solutions of 3.2 mg/mL Tobramycin (Sigma-Aldrich, cat #T1783-500MG) and 3.2 mg/mL Amphotericin B (CP Lab Chemicals, cat #TOK-A007-1G) were prepared in sterile ultrapure water.
(§3) For bacteria strains, a few colonies of each strain were collected with a sterile swab and used to make a McFarland 0.5 standard solution (approximately 1×10^8 CFU/mL) in sterile PBS. The McFarland was then diluted 1:180 in Cation Adjusted Muller-Hinton Broth (CAMHB) for S. aureus and P. aeruginosa, and in CAVHIIB+5% defibrinated sheep blood for S. pyogenes. 90 μL of this inoculum was combined with 10 μL of the 10× test article in a 96-well plate for a final concentration of 1×.
(§4) All bacterial-strain MIC 96-well plates were incubated at 35±2° C. for 18 to 20 hours, while all Candida MIC 96-well plates were incubated at 35±2° C. for 24 to 48 hours. C. herbarum MIC 96-well plates were incubated at 25±2° C. for 3 to 5 days, until growth was visible in the growth control wells. After incubation, the 96-well plates were examined visually and on a spectrophotometer at absorbance OD650. […]

P. aeruginosa ATCC 27853 = assay: MIC microdilution assay; assay type: cell-based, Pseudomonas aeruginosa; conditions: CAMHB, 35±2° C. 18 to 20 hours, two values given
Protocol: as §1, §2, §3, §4

S. pyogenes ATCC 51339 = assay: MIC microdilution assay; assay type: cell-based, Steptococcus pyogenes; conditions: S. pyogenes ATCC 51339; broth +5% defibrinated sheep blood; 35±2° C. 18 to 20 hours; two values given
Protocol: as §1, §2, §3, §4

[2] = system: Candida albicans ATCC 90028; assay: MIC microdilution assay; assay type: cell-based; conditions: C. albicans ATCC 90028; RPMI media; 35±2° C. 24 to 48 hours; two values given
Protocol: as §1, §2, §3
(§5) For the yeasts C. albicans and C. auris, a McFarland 0.5 standard solution in sterile PBS was similarly prepared (approximately 1×10^6 CFU/mL) and was subsequently diluted 1:180 in RPMI 1640 media buffered with 0.165 M MOPS at pH 7.0 (herein referred to as “RPMI media”). 90 μL of the Candida inoculum was combined with 10 μL of the 10× test article in a 96-well plate for a final concentration of 1×.
(§6) All bacterial-strain MIC 96-well plates were incubated at 35±2° C. for 18 to 20 hours, while all Candida MIC 96-well plates were incubated at 35±2° C. for 24 to 48 hours. C. herbarum MIC 96-well plates were incubated at 25±2° C. for 3 to 5 days, until growth was visible in the growth control wells. After incubation, the 96-well plates were examined visually and on a spectrophotometer at absorbance OD650. MIC is defined as the lowest concentration of a compound in which no visible growth is observed.

Candida auris CDC 0381 = assay: MIC microdilution assay; assay type: cell-based; conditions: C. auris CDC 0381; RPMI media; 35±2° C. 24 to 48 hours; two values given
Protocol: as §1, §2, §3, §5, §6

[3] = system: Cladosporium herbarum ATCC MYA-4682; assay: MIC microdilution assay; assay type: cell-based; conditions: C. herbarum ATCC MYA-4682; RPMI media; 25±2° C. 3 to 5 days; two values given
Protocol: as §1
Test articles Compound 2 (batch #2G13A0.368) and Compound 23 (batch #2G17A0.372) were received and stored at 4° C. The antibiotic Tobramycin and antifungal Amphotericin B were used as quality control (QC) compounds for the MIC assay. […]
All bacterial-strain MIC 96-well plates were incubated at 35±2° C. for 18 to 20 hours, while all Candida MIC 96-well plates were incubated at 35±2° C. for 24 to 48 hours. […] After incubation, the 96-well plates were examined visually and on a spectrophotometer at absorbance OD650. […]

[4] = system: Candida albicans ATCC 90028; assay: MIC microdilution assay (Example 32); assay type: cell-based; conditions: C. albicans ATCC 90028 (quality control); RPMI media; 35±2° C. 24 to 48 hours; two values given
Protocol: (§7) Strain IDs starting with “ATCC” were acquired from the American Type Culture Collection (Manassas, VA), strain IDs starting with “Eurofins” were acquired from Eurofins (Herndon, VA), while strain IDs starting with “CDC” were acquired from the Centers for Disease Control and Prevention (Atlanta, GA). All strains were maintained as −80° C. frozen glycerol stocks. S. aureus and P. aeruginosa were grown overnight on Tryptic Soy Agar (TSA) plates at 35±2° C., ambient atmosphere, while S. pyogenes was grown overnight on TSA+5% defibrinated sheep blood at 35±2° C., 5% CO2. C. jejuni was grown for 48 hours on TSA+5% defibrinated sheep blood at 35±2° C., in a microaerophilic environment generated by CampyGen sachet. All fungal species (i.e. C. albicans and C. auris) were grown overnight on Sabouraud Dextrose Agar (SDA) plates at 35±2° C., ambient atmosphere.
as §2, with “Test article” for “Test articles”, “Compound 1” for “Compound 2”, “(batch #7G30A9.203) was” for “(batch #2G13A0.368) and Compound 23 (batch #2G17A0.372) were received and”
as §3, with “aeruginosa. S. pyogenes McFarland was diluted 1:180” for “aeruginosa, and”, “CAMHB+5%” for “CAVHIIB+5%”, “blood, while C. jejuni McFarland was diluted 1:180 in CAMHB+5% laked horse blood.” for “blood for S. pyogenes.”
as §5
(§8) Except for C. jejuni, all bacterial-strain MIC 96-well plates were incubated at 35±2° C. for 18 to 20 hours, ambient atmosphere. C. jejuni was incubated at 35±2° C. for 48 hours, under microaerophilic condition. All Candida MIC 96-well plates were incubated at 35±2° C. for 24 to 48 hours, ambient atmosphere, until growth in control wells were observed. After incubation, the 96-well plates were examined visually and on a spectrophotometer at absorbance OD650. MIC is defined as the lowest concentration of a compound in which no visible growth is observed.

Candida auris CDC 0385 = assay: MIC microdilution assay (Example 32); assay type: cell-based; conditions: C. auris CDC 0385; RPMI media; 35±2° C. 24 to 48 hours; two values given
Protocol: as §7
as §2, with “Test article” for “Test articles”, “Compound 1” for “Compound 2”, “(batch #7G30A9.203) was” for “(batch #2G13A0.368) and Compound 23 (batch #2G17A0.372) were received and”
as §3, with “aeruginosa. S. pyogenes McFarland was diluted 1:180” for “aeruginosa, and”, “CAMHB+5%” for “CAVHIIB+5%”, “blood, while C. jejuni McFarland was diluted 1:180 in CAMHB+5% laked horse blood.” for “blood for S. pyogenes.”
as §5, §8

[5] = system: Acinetobacter baumannii Eurofins 1674627; assay: MIC microdilution assay (Example 32); assay type: cell-based; conditions: A. baumannii Eurofins 1674627; 35±2° C. 18 to 20 hours; two values given
Protocol: as §7
as §2, with “Test article” for “Test articles”, “Compound 1” for “Compound 2”, “(batch #7G30A9.203) was” for “(batch #2G13A0.368) and Compound 23 (batch #2G17A0.372) were received and”
as §3, with “aeruginosa. S. pyogenes McFarland was diluted 1:180” for “aeruginosa, and”, “CAMHB+5%” for “CAVHIIB+5%”, “blood, while C. jejuni McFarland was diluted 1:180 in CAMHB+5% laked horse blood.” for “blood for S. pyogenes.”
as §8

[6] = system: Campylobacter jejuni CDC 0413; assay: MIC microdilution assay (Example 32); assay type: cell-based; conditions: C. jejuni CDC 0413; CAMHB+5% laked horse blood; 35±2° C. 48 hours, microaerophilic; two values given
Protocol: as §7
as §2, with “Test article” for “Test articles”, “Compound 1” for “Compound 2”, “(batch #7G30A9.203) was” for “(batch #2G13A0.368) and Compound 23 (batch #2G17A0.372) were received and”
as §3, with “aeruginosa. S. pyogenes McFarland was diluted 1:180” for “aeruginosa, and”, “CAMHB+5%” for “CAVHIIB+5%”, “blood, while C. jejuni McFarland was diluted 1:180 in CAMHB+5% laked horse blood.” for “blood for S. pyogenes.”
as §8

[7] = system: Pseudomonas aeruginosa ATCC 27853; assay: MIC microdilution assay (Example 32); assay type: cell-based; conditions: P. aeruginosa ATCC 27853 (quality control); CAMHB; 35±2° C. 18 to 20 hours; two values given
Protocol: as §7
as §2, with “Test article” for “Test articles”, “Compound 1” for “Compound 2”, “(batch #7G30A9.203) was” for “(batch #2G13A0.368) and Compound 23 (batch #2G17A0.372) were received and”
as §3, with “aeruginosa. S. pyogenes McFarland was diluted 1:180” for “aeruginosa, and”, “CAMHB+5%” for “CAVHIIB+5%”, “blood, while C. jejuni McFarland was diluted 1:180 in CAMHB+5% laked horse blood.” for “blood for S. pyogenes.”
as §8

[8] = system: Pseudomonas aeruginosa CDC 0248; assay: MIC microdilution assay (Example 32); assay type: cell-based; conditions: P. aeruginosa CDC 0248; CAMHB; 35±2° C. 18 to 20 hours; two values given
Protocol: as §7
as §2, with “Test article” for “Test articles”, “Compound 1” for “Compound 2”, “(batch #7G30A9.203) was” for “(batch #2G13A0.368) and Compound 23 (batch #2G17A0.372) were received and”
as §3, with “aeruginosa. S. pyogenes McFarland was diluted 1:180” for “aeruginosa, and”, “CAMHB+5%” for “CAVHIIB+5%”, “blood, while C. jejuni McFarland was diluted 1:180 in CAMHB+5% laked horse blood.” for “blood for S. pyogenes.”
as §8

[9] = system: Pseudomonas aeruginosa Eurofins 1674623; assay: MIC microdilution assay (Example 32); assay type: cell-based; conditions: P. aeruginosa Eurofins 1674623; CAMHB; 35±2° C. 18 to 20 hours; two values given
Protocol: as §7
as §2, with “Test article” for “Test articles”, “Compound 1” for “Compound 2”, “(batch #7G30A9.203) was” for “(batch #2G13A0.368) and Compound 23 (batch #2G17A0.372) were received and”
as §3, with “aeruginosa. S. pyogenes McFarland was diluted 1:180” for “aeruginosa, and”, “CAMHB+5%” for “CAVHIIB+5%”, “blood, while C. jejuni McFarland was diluted 1:180 in CAMHB+5% laked horse blood.” for “blood for S. pyogenes.”
as §8

[10] = system: Streptococcus pyogenes Eurofins 2065755; assay: MIC microdilution assay (Example 32); assay type: cell-based; conditions: S. pyogenes Eurofins 2065755; CAMHB+5% defibrinated sheep blood; 35±2° C. 18 to 20 hours; two values given
Protocol: as §7
as §2, with “Test article” for “Test articles”, “Compound 1” for “Compound 2”, “(batch #7G30A9.203) was” for “(batch #2G13A0.368) and Compound 23 (batch #2G17A0.372) were received and”
as §3, with “aeruginosa. S. pyogenes McFarland was diluted 1:180” for “aeruginosa, and”, “CAMHB+5%” for “CAVHIIB+5%”, “blood, while C. jejuni McFarland was diluted 1:180 in CAMHB+5% laked horse blood.” for “blood for S. pyogenes.”
as §8

[11] = Dissolution of isolated product in water; assay type: physicochemical; conditions: observation
pH of aqueous solution = assay type: physicochemical; conditions: 2% solution in water

Row | SMILES | MIC [1] [µg/mL] | MIC (P. aeruginosa ATCC 27853) [µg/mL] | MIC (S. pyogenes ATCC 51339) [µg/mL] | MIC [2] [µg/mL] | MIC (Candida auris CDC 0381) [µg/mL] | MIC [3] [µg/mL] | MIC [4] [µg/mL] | MIC (Candida auris CDC 0385) [µg/mL] | MIC [5] [µg/mL] | MIC [6] [µg/mL] | MIC [7] [µg/mL] | MIC [8] [µg/mL] | MIC [9] [µg/mL] | MIC [10] [µg/mL] | dissolution in water [11] | pH of solution (pH of aqueous solution)
1 | C[C@@H]1[C@H](O)[C@@H](C)/C=C/C=C/C=C/C=C/C=C/C=C/C=C/[C@H](O[C@@H]2O[C@H](C)[C@@H](O)[C@H](N)[C@@H]2O)C[C@@H]2O[C@](O)(C[C@@H](O)C[C@@H](O)[C@H](O)CC[C@@H](O)C[C@@H](O)CC(=O)O[C@H]1C)C[C@H](O)[C@H]2C(=O)O [Amphotericin B] | >32 | >32 | >32 | 2 (≈ 2.16 µM) | 1 (≈ 1.08 µM) | ≤0.03 | 1 (≈ 1.08 µM) | 4 (≈ 4.33 µM) | >32 | >32 | >32 | >32 | >32 | >32 |  | 
2 | CCCCCCCCCCCCCCCCCC[N+](C)(C)CCC[Si](OCC(CO)(CO)NCC(O)CS(=O)(=O)[O-])(OCC(CO)(CO)NCC(O)CS(=O)(=O)O)OCC(CO)(CO)NCC(O)CS(=O)(=O)O (stereo not shown) [Example 24, monosodium mono(8-(3-(dimethyl(octadecyl)ammonio)propyl)-2,14-dihydroxy-8-(3-hydroxy-2-((2-hydroxy-3-sulfopropyl)amino)-2-(hydroxymethyl)propoxy)-5,5,11,11-tetrakis(hydroxymethyl)-7,9-dioxa-4,12-diaza-8-silapentadecane-1,15-disulfonate); chloride] |  |  |  |  |  |  |  |  |  |  |  |  |  |  | readily dissolved in water | 7.65
